Test results taken from article PMC11736144, “A sleepy cannabis constituent: cannabinol and its active metabolite influence sleep architecture in rats” (Neuropsychopharmacology, 2024).
Where two headings read alike, the source gives them in different places.

Assays:
[1] = tested on: non-clinical sample of poor sleepers; parameters: method as in PMID 37796540; settings: 20 mg CBN alone, self-reported measures, vs placebo; cited from earlier work
[2] = molecular target: T1, human CB2 receptors (Homo sapiens, UniProt P34972); assay: Membrane potential (GIRK) assay in AtT20 cells, human CB2; assay type: cell-based; settings: at 10 µM; normalized to 1 µM CP 55,940
T1 construct: expressed in transfected cells; host or cells: mouse AtT20 FlpIn cells
T1 sequence (P34972 whole entry): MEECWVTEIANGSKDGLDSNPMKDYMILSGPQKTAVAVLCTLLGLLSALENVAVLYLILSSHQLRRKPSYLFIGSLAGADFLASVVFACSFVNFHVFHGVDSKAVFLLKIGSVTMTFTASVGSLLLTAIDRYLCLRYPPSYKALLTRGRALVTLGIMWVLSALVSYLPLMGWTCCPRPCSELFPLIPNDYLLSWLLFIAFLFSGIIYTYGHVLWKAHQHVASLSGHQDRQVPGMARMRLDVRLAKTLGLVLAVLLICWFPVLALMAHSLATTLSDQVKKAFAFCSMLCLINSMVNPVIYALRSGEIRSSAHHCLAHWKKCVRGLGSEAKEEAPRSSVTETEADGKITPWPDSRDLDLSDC

[3] = tested on: rats; settings: cited from earlier work
[4] = tested on: male Long-Evans rats; assay: Repeated CBN dosing (15 days) polysomnography in rats; assay type: in vivo, rat; settings: CBN 10 mg/kg IP daily for 15 days
Description: In the repeated dosing experiment, eight rats were randomly assigned to vehicle condition and eight to the CBN 10 mg/kg condition. Rats were administered the same treatment at ZT13 each day for 15 days, however, telemetry recordings were taken on days 1, 8, and 15 of respective treatments, and the response was compared between subjects.

[5] = cited from earlier work
[6] = tested on: male Long-Evans rats; assay: Acute polysomnography (wireless EEG/EMG telemetry) in rats
[7] = molecular target: T2, human CB1 receptors (Homo sapiens, UniProt P21554); assay: cell-based; assay type: cell-based; parameters: expressed in transfected cells; host or cells: mouse AtT20 FlpIn cells
T2 sequence (P21554 whole entry): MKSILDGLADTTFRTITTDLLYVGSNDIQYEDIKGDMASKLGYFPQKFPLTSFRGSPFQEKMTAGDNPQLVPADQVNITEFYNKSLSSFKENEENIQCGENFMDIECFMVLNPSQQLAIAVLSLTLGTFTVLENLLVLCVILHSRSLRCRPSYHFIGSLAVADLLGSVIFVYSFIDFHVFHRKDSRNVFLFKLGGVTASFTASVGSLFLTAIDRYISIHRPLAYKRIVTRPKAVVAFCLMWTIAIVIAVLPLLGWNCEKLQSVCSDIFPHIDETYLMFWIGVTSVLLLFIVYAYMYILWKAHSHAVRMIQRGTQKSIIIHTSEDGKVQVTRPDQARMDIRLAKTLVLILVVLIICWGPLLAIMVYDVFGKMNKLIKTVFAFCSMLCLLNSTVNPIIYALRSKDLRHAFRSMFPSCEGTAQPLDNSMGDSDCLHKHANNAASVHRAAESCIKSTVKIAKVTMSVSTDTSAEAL

[8] = tested on: rats; parameters: method as in PMID 168604; settings: cited from earlier work
[9] = molecular target: T2, human CB1 receptors; parameters: expressed in transfected cells; method as in PMID 7565624, PMID 9690851; settings: some studies; cited from earlier work
[10] = Pharmacokinetic analysis of CBN and metabolites in rat plasma and brain (LC-MS/MS); assay type: in vivo
Description: Rats received 10 mg/kg CBN IP at approximately ZT13. Rats were then anesthetized with isoflurane at selected ZT points (13, 13.5, 14, 15, 17, 19, and 21) and blood was collected by terminal cardiac puncture. Brains were harvested, snap frozen on dry ice and plasma was isolated via centrifugation at 9000 × g for 10 min at 4 °C. All tissues were stored at −80 °C until analysis. CBN and metabolite concentrations in plasma and brain samples were assayed by liquid chromatography-tandem mass spectrometry (LC–MS/MS) using a using a Shimadzu Nexera LC-30AD UHPLC system coupled to a Shimadzu SPD-20AV photodiode array detector and a Shimadzu LC–MS-8040 triple-quadrupole mass spectrometer, equipped with an electrospray ionization (ESI) source (Shimadzu Corp.; Kyoto, Japan) as described previously.
LC-MS/MS. Plasma samples (50 µL) were spiked with internal standard (12.5 µg/mL d3-THC, 5 µL) and protein precipitation was achieved by vortex-mixing with a 3x volume of ice-cold acetonitrile. The organic layer was isolated by centrifugation (6000 g for 10 min, 4 °C) and evaporated to dryness using N2 gas. Samples were reconstituted in acetonitrile (90 µL) and 0.1% ammonium formate in water (300 µL) for supported-liquid extraction (SLE) using dichloromethane and methyl tert-butyl ether Biotage Isolute SLE+ columns (Uppsala, Sweden) as previously described. Brain samples were prepared as described for plasma samples with minor modifications. Briefly, each half brain was homogenised in methanol: water (2:1, 10x, w/v) and spiked with d3-THC as an internal standard. Homogenates were centrifuged (20,000 g for 30 min, 4 °C). Supernatants were then extracted and prepared as described above.
Quantification of CBN, 11-OH-CBN and 11-COOH-CBN in plasma and brain samples was performed by comparing experimental samples to eight-point standard curves prepared with known amounts of cannabinoid. Plasma and brain concentrations at each time point were averaged and pharmacokinetic parameters were calculated by noncompartmental analysis. Elimination rate constants were determined by linear regression of the terminal component of the concentration-time curve using GraphPad Prism 8.2 (La Jolla, USA). The log-linear trapezoidal method was used to calculate the area under concentration-time curve using equations described previously.

[11] = rats, oral vs IP of the current study; cited from earlier work
[12] = rats, 10 and 30 mg/kg CBN IP, CBN 99.2% pure with 0.8% Δ8-THC, ref Järbe et al (1987)
[13] = days 1, 8, 15, not subject to tolerance
[14] = acute IP at ZT13 vs vehicle, CBN 10, 30, 100 mg/kg, 11-OH-CBN 1, 3, 10 mg/kg
[15] = acute IP at ZT13 vs vehicle, CBN 10, 30, 100 mg/kg, zolpidem 10 mg/kg, 11-OH-CBN 1, 3, 10 mg/kg

CCCCCc1cc(O)c2c(c1)OC(C)(C)c1ccc(C)cc1-2 [CBN, cannabinol]
number of awakenings and overall sleep disturbance [1]: significantly reduced | sleep onset latency [1]: did not influence | activity at CB2 [2]: < 20% | body temperature or locomotor activity ([3]; CBN up to 80 mg/kg IP, ref Fernandes et al (1974)): did not influence | body temperature [3, 12]: reduced | locomotor activity [3, 12]: suppressed | % NREM ([4]; days 1, 8, 15): increased % NREM initially on days 1 and 8, however this effect was diminished by day 15 | % REM ([4]; days 1, 8, 15): affected | % quiet wake ([4]; days 1, 8, 15): affected | REM bout duration ([4]; days 1, 8, 15): affected | REM bout number ([4]; days 1, 8, 15): affected | total wake time ([4]; days 1, 8, 15): decreased | NREM sleep onset latency ([4]; days 1, 8, 15, main effect): increased | REM sleep onset latency ([4]; days 1, 8, 15, main effect): increased | NREM bout duration [4, 13]: increased | NREM bout number [4, 13]: decreased | % active wake ([4]; days 1, 8, 15, subject to tolerance): decreased | total sleep time over days ([4]; recordings days 1, 8, 15, between-subjects vs vehicle, n = 8): increased | highest plasma CBN concentration (Cmax) following cannabis smoking [5]: 11.6 ng/mL | % NREM sleep compared to vehicle ([6]; CBN 10 mg/kg and 100 mg/kg, various time points from ZT16–20): significantly increased | cumulative total sleep time ([6]; CBN 10 mg/kg dose only, from ZT17): significantly increased | NREM delta power at specific time points ([6]; CBN 30 mg/kg and 100 mg/kg at ZT17 and 18, zolpidem 10 mg/kg at ZT13 and 14): increase | NREM delta power ([6]; EEG power spectra, overall effect, acute IP, CBN 10, 30, 100 mg/kg, zolpidem 10 mg/kg, 11-OH-CBN 1, 3, 10 mg/kg): Neither CBN nor zolpidem had robust effects | REM theta power ([6]; EEG power spectra, acute IP, CBN 10, 30, 100 mg/kg, zolpidem 10 mg/kg, 11-OH-CBN 1, 3, 10 mg/kg): increased | delayed onset of action on % NREM sleep, time post-dosing ([6]; acute IP at ZT13): 3 to 4 h | total sleep time ([6]; acute IP at ZT13 (dark phase) vs vehicle, CBN 10, 30, 100 mg/kg, zolpidem 10 mg/kg, 11-OH-CBN 1, 3, 10 mg/kg, n = 8): increased | cumulative NREM time [6, 14]: biphasic effect | cumulative REM time [6, 14]: similarly influenced | % NREM sleep [6, 15]: increased | % REM sleep [6, 15]: initially suppressed % REM, before it increased % REM at ZT17-18 | % active wake [6, 15]: decreased | % quiet wake [6, 15]: affected | NREM sleep onset latency [6, 15]: did not affect | REM bout duration [6, 15]: initially decreased REM bout duration and then increased duration of REM bouts | REM bout number [6, 15]: biphasically influenced | REM sleep onset latency [6, 15]: increased | cumulative total sleep time [6, 15]: biphasic effects | mean duration of NREM bouts per hour [6, 15]: increased | number of NREM bouts per hour [6, 15]: decreased | total wake time [6, 15]: decreased | body temperature ([6]; subcutaneous, telemetry, acute IP, CBN 10, 30, 100 mg/kg, zolpidem 10 mg/kg, 11-OH-CBN 1, 3, 10 mg/kg): did not robustly effect | locomotor activity counts ([6]; telemetry, acute IP, CBN 10, 30, 100 mg/kg, zolpidem 10 mg/kg, 11-OH-CBN 1, 3, 10 mg/kg): decreased | EC50 [7]: 3.98 µM | activity at CB1 receptors (in words) [7]: low activity | Emax ([7]; AtT20, read-out: maximal response (Emax)): 29 ± 3% | pentobarbital-induced sleep time [8]: prolonged | activity at human CB1 receptors [9]: inactive | Tmax ([10]; ip, rat brain after CBN 10 mg/kg, read-out: brain Tmax): 2 h | Tmax ([10]; ip, rat plasma after CBN 10 mg/kg, read-out: plasma Tmax (converted)): 0.5 h | half-life ([10]; ip, rat, after CBN 10 mg/kg, similar in plasma and brain, read-out: half-life in plasma and brain (converted)): ~2 h | Brain AUC∞ ([10]; rat brain after CBN 10 mg/kg IP, analyte as labelled): 1623 pg hour/mg brain | Brain Cmax ([10]; rat brain after CBN 10 mg/kg IP, analyte as labelled, n = 4): 373 ± 26 pg/mg brain | half-life ([10]; rat brain after CBN 10 mg/kg IP, analyte as labelled, read-out: Brain t½ (converted)): 2.2 h | Brain Cmax ([10]; rat brain following systemic administration of CBN): 1.2 µM | Plasma AUC∞ ([10]; rat plasma after CBN 10 mg/kg IP, analyte as labelled): 775 ng·h/mL | Cmax ([10]; rat plasma after CBN 10 mg/kg IP, analyte as labelled, n = 4): 374 ± 34 ng/mL | half-life ([10]; rat plasma after CBN 10 mg/kg IP, analyte as labelled, read-out: Plasma t½ (converted)): 1.93 h | Brain/plasma ratio ([10]; rat, after CBN 10 mg/kg IP, analyte as labelled): ~2 | Kp ([10]; rat, brain and plasma, ip, 10 mg/kg, rat, after CBN 10 mg/kg IP, analyte as labelled, read-out: Brain/plasma ratio): 2.09 | Cmax ([10]; rat, plasma, intraperitoneal, rats, 10 mg/kg CBN dose): 374 ng/mL | plasma exposures (AUC), oral lower than intraperitoneal at the same dose [11]: ~5 fold
